Here are results for four molecules from US5565616A (priority 1994, dated 1996).

Data set [1] in a line: Sample pH before SCWO, after five-minute reactor residence time and after reactor cool down. The format is physicochemical. The protocol: Fourteen tests were conducted to determine the by-product distribution of DMMP during SCWO at different oxygen concentrations in the presence of additives. Test conditions and procedures were the same as described in Example 1. Additive concentrations were based on achieving a 1:1 molar ratio of Na^+ ions to DMMP. Based on an initial concentration of DMMP of 10,000 mg/L, the initial concentrations of each additive were 3,224 mg/L for NaOH, 4,271 mg/L for Na2 CO3 and 15.4 g/L for Na2 B4 O7 (as Na2 B4 O7.10H2 O).
The pH of each sample was measured within one hour of sample collection. The presence of the additive affected the pH of the sample collected after a five minute reactor residence time only slightly. Since the pH of the initial solution had increased upon addition of the additive, it was expected that the pH of the sample collected at supercritical conditions would also increase. However, the effect was only slightly obvious due most likely to the precipitation of the additives at supercritical conditions. After reactor cool down, the pH of samples collected after cool down increased in the presence of the additive. The pH increase which occurred between the sample collected after five minutes reactor residence time and after reactor cool down was a result of the dissolution of precipitated additive. It is believed that sodium hydroxide, sodium carbonate and sodium borate dissolved after reactor cool down and neutralized the acidic solution which was observed after the five minute reactor residence time.

The conditions of data set [2]: cited from earlier work.
The text on data set [3]: Calculations are based on the reported first-order reaction kinetic model
For data set [4] the following is noted: cited from earlier work; for Pyridine Conversion: 27.6 MPa.
Setting [5] is: first-order oxidation, 24.6 MPa, 530-700 °C.

Read-outs that look alike come from different tables or passages of the source.

As to `O.O.O.O.O.O.O.O.O.O.[Na+].[Na+].[O-]B1OB2OB([O-])OB(O1)O2` [Na2 B4 O7, sodium borate], in data set [1] (hydrolysis), the “pH, 5 Min. Reactor Resid. Time” value was found to be 2.8; the “pH, After Reactor Cool Down” value is listed as 7.0; the “pH, Initial” value came out at 9. Also, in data set [1] (partial oxidation), the “pH, 5 Min. Reactor Resid. Time” value is 3.2; the “pH, After Reactor Cool Down” value is recorded as 7.3; the “pH, Initial” value is 9.

`N` [ammonia]: in data set [2] (setting [5]), the activation energy is 37.5 kcal/mol and the pre-exponential factor was 3.16e+06 s⁻¹. The “temperature at which oxidation rate becomes appreciable” value in data set [2] (supercritical water) was “greater than 550 °C”. Besides, in data set [3] (400 °C), the “Reactor Residence Time Required to Achieve 9% Conversion” value came out at 774 min, the “Reactor Residence Time Required to Achieve 90% Conversion” value is 18888 min, the “Reactor Residence Time Required to Achieve 99% Conversion” value is listed as 37775 min and the “Reactor Residence Time Required to Achieve 99.9% Conversion” value is 56663 min. In data set [3] (400 °C), the “Reactor Residence Time Required to Achieve 99.99% Conversion” value is 75551 min. In addition, in data set [3] (450 °C), the “Reactor Residence Time Required to Achieve 9% Conversion” value is listed as 111 min, the “Reactor Residence Time Required to Achieve 90% Conversion” value amounted to 2710 min, the “Reactor Residence Time Required to Achieve 99% Conversion” value amounted to 5421 min and the “Reactor Residence Time Required to Achieve 99.9% Conversion” value is reported as 8131 min. Also, in data set [3] (450 °C), the “Reactor Residence Time Required to Achieve 99.99% Conversion” value came to 10842 min. Also, in data set [3] (500 °C), the “Reactor Residence Time Required to Achieve 9% Conversion” value is 20 min, the “Reactor Residence Time Required to Achieve 90% Conversion” value was determined as 500 min, the “Reactor Residence Time Required to Achieve 99% Conversion” value came out at 1000 min and the “Reactor Residence Time Required to Achieve 99.9% Conversion” value is recorded as 1500 min. Further, in data set [3] (500 °C), the “Reactor Residence Time Required to Achieve 99.99% Conversion” value is recorded as 2000 min. Besides, in data set [3] (550 °C), the “Reactor Residence Time Required to Achieve 9% Conversion” value came to 5 min, the “Reactor Residence Time Required to Achieve 90% Conversion” value amounted to 113 min, the “Reactor Residence Time Required to Achieve 99% Conversion” value turned out to be 227 min and the “Reactor Residence Time Required to Achieve 99.9% Conversion” value was determined as 340 min. In addition, the “Reactor Residence Time Required to Achieve 99.99% Conversion” value in data set [3] (550 °C) is listed as 453 min. Further, in data set [3] (600 °C), the “Reactor Residence Time Required to Achieve 9% Conversion” value is on record as 0.1 min, the “Reactor Residence Time Required to Achieve 90% Conversion” value came to 3 min, the “Reactor Residence Time Required to Achieve 99% Conversion” value is 7 min and the “Reactor Residence Time Required to Achieve 99.9% Conversion” value was 10 min. The “Reactor Residence Time Required to Achieve 99.99% Conversion” value in data set [3] (600 °C) amounted to 13 min. Besides, the “reactor residence time required to convert 10% ammonia” value in data set [3] (below 450 °C) was “at least two hours”.

For `c1ccncc1` [pyridine], the “Pyridine Conversion” value in data set [4] (Test 513: 522 °C, 6.6 sec, 1990 mg/L, O2 0.024 mole/L) is given as 74%; in data set [4] (Test 516: 499 °C, 7.1 sec, 1990 mg/L, O2 0.026 mole/L), 66%; in data set [4] (Test 524: 499 °C, 7.1 sec, 3050 mg/L, O2 0.031 mole/L) it was 75%; in data set [4] (Test 525: 475 °C, 7.8 sec, 1990 mg/L, O2 0.029 mole/L) it was 25%; in data set [4] (Test 529: 451 °C, 8.8 sec, 3050 mg/L, O2 0.038 mole/L), 6%; in data set [4] (Test 541: 522 °C, 6.6 sec, 3050 mg/L, O2 0.027 mole/L) it was 94%. The “Pyridine Conversion” value in data set [4] (Test 542: 474 °C, 7.8 sec, 3050 mg/L, O2 0.035 mole/L) is reported as 22%; in data set [4] (Test 661: 527 °C, 3.8 sec, 3530 mg/L, O2 0.010 mole/L) it was 55%; in data set [4] (Test 668: 525 °C, 3.9 sec, 3530 mg/L, O2 0.014 mole/L), 53%; in data set [4] (Test 676: 527 °C, 3.8 sec, 3530 mg/L, O2 0.020 mole/L), 68%. Further, the pyridine converted in data set [4] (at 524 °C (Test No. 524)) is 75%.

For the molecule sodium hydroxide [NaOH], in data set [1] (hydrolysis), the “pH, 5 Min. Reactor Resid. Time” value was 2.1; the “pH, After Reactor Cool Down” value amounted to 5.3; the “pH, Initial” value is given as 12.3. In addition, in data set [1] (oxidation), the “pH, 5 Min. Reactor Resid. Time” value was found to be 3.6; the “pH, After Reactor Cool Down” value is reported as 5.0; the “pH, Initial” value worked out at 12.3. Also, in data set [1] (partial oxidation), the “pH, 5 Min. Reactor Resid. Time” value is 2.2; the “pH, After Reactor Cool Down” value amounted to 6.0; the “pH, Initial” value came out at 12.3.
